Numbers after ± are expanded uncertainties.
Experiment: activity coefficient (dimensionless); of the first substance listed, at infinite dilution; xn = mol fraction of the nth substance listed
Conditions: 101 kPa, Liquid, Chromatography, x1 = 0

Structure (SMILES) | activity coefficient (298.15 K) | activity coefficient (308.15 K) | activity coefficient (318.15 K) | activity coefficient (328.15 K) | activity coefficient (338.15 K) | activity coefficient (348.15 K) | activity coefficient (358.15 K) | activity coefficient (368.15 K)
COC(C)(C)C [2-methoxy-2-methylpropane] + CCCC[n+]1ccc(C)cc1.O=S(=O)([N-]S(=O)(=O)C(F)(F)F)C(F)(F)F | 1.97 ± 0.13 | 2 ± 0.14 | 2.03 ± 0.14 | 2.06 ± 0.14 | 2.08 ± 0.14 | 2.1 ± 0.14 | 2.12 ± 0.14 | 2.15 ± 0.15
C=CCCC [1-pentene] + CCCC[n+]1ccc(C)cc1.O=S(=O)([N-]S(=O)(=O)C(F)(F)F)C(F)(F)F | 5.81 ± 0.4 | 5.6 ± 0.38 | 5.42 ± 0.37 | 5.24 ± 0.36 | 5.07 ± 0.35 | 4.93 ± 0.34 | 4.8 ± 0.33 | 4.68 ± 0.32
C1CCCCCC1 [cycloheptane] + CCCC[n+]1ccc(C)cc1.O=S(=O)([N-]S(=O)(=O)C(F)(F)F)C(F)(F)F | 10.9 ± 0.7 | 10.1 ± 0.7 | 9.45 ± 0.64 | 8.9 ± 0.61 | 8.39 ± 0.57 | 7.9 ± 0.54 | 7.46 ± 0.51 | 7.14 ± 0.49
C1CCCCC1 [cyclohexane] + CCCC[n+]1ccc(C)cc1.O=S(=O)([N-]S(=O)(=O)C(F)(F)F)C(F)(F)F | 8.93 ± 0.61 | 8.34 ± 0.57 | 7.76 ± 0.53 | 7.31 ± 0.5 | 6.96 ± 0.47 | 6.54 ± 0.45 | 6.23 ± 0.42 | 5.94 ± 0.4
Cc1ccccc1 [toluene] + CCCC[n+]1ccc(C)cc1.O=S(=O)([N-]S(=O)(=O)C(F)(F)F)C(F)(F)F |  |  | 0.973 ± 0.061 | 1 ± 0.063 | 1.02 ± 0.064 | 1.05 ± 0.066 | 1.07 ± 0.067 | 1.09 ± 0.069
C1CCCC1 [cyclopentane] + CCCC[n+]1ccc(C)cc1.O=S(=O)([N-]S(=O)(=O)C(F)(F)F)C(F)(F)F | 6.65 ± 0.45 | 6.25 ± 0.43 | 5.89 ± 0.4 | 5.59 ± 0.38 | 5.28 ± 0.36 | 5.03 ± 0.34 | 4.81 ± 0.33 | 4.6 ± 0.31
CCO [ethanol] + CCCC[n+]1ccc(C)cc1.O=S(=O)([N-]S(=O)(=O)C(F)(F)F)C(F)(F)F | 1.91 ± 0.13 | 1.72 ± 0.12 | 1.56 ± 0.1 | 1.43 ± 0.09 | 1.31 ± 0.09 | 1.21 ± 0.08 | 1.12 ± 0.07 | 1.04 ± 0.07
CCCO [propan-1-ol] + CCCC[n+]1ccc(C)cc1.O=S(=O)([N-]S(=O)(=O)C(F)(F)F)C(F)(F)F | 2.28 ± 0.16 | 2.04 ± 0.14 | 1.84 ± 0.12 | 1.67 ± 0.11 | 1.53 ± 0.1 | 1.41 ± 0.09 | 1.3 ± 0.08 | 1.2 ± 0.08
Cc1ccc(C)cc1 [1,4-dimethylbenzene] + CCCC[n+]1ccc(C)cc1.O=S(=O)([N-]S(=O)(=O)C(F)(F)F)C(F)(F)F |  |  | 1.35 ± 0.09 | 1.38 ± 0.09 | 1.42 ± 0.09 | 1.45 ± 0.1 | 1.48 ± 0.1 | 1.51 ± 0.1
c1ccsc1 [thiophene] + CCCC[n+]1ccc(C)cc1.O=S(=O)([N-]S(=O)(=O)C(F)(F)F)C(F)(F)F | 0.609 ± 0.043 | 0.624 ± 0.043 | 0.637 ± 0.044 | 0.649 ± 0.044 | 0.661 ± 0.045 | 0.672 ± 0.046 | 0.683 ± 0.046 | 0.694 ± 0.047
C#CCCC [1-pentyne] + CCCC[n+]1ccc(C)cc1.O=S(=O)([N-]S(=O)(=O)C(F)(F)F)C(F)(F)F | 1.79 ± 0.12 | 1.82 ± 0.12 | 1.84 ± 0.12 | 1.87 ± 0.13 | 1.89 ± 0.13 | 1.91 ± 0.13 | 1.93 ± 0.13 | 1.95 ± 0.13
CCCCCC [hexane] + CCCC[n+]1ccc(C)cc1.O=S(=O)([N-]S(=O)(=O)C(F)(F)F)C(F)(F)F | 15.4 ± 1.1 | 14.5 ± 1 | 13.5 ± 0.9 | 12.7 ± 0.9 | 12 ± 0.8 | 11.4 ± 0.8 | 10.8 ± 0.7 | 10.3 ± 0.7
CCCOCCC [dipropyl ether] + CCCC[n+]1ccc(C)cc1.O=S(=O)([N-]S(=O)(=O)C(F)(F)F)C(F)(F)F | 4.91 ± 0.33 | 4.81 ± 0.33 | 4.71 ± 0.32 | 4.62 ± 0.31 | 4.54 ± 0.31 | 4.45 ± 0.3 | 4.38 ± 0.3 | 4.31 ± 0.29
CCOCC [diethyl ether] + CCCC[n+]1ccc(C)cc1.O=S(=O)([N-]S(=O)(=O)C(F)(F)F)C(F)(F)F | 2.07 ± 0.14 | 2.08 ± 0.14 | 2.08 ± 0.14 | 2.08 ± 0.14 | 2.08 ± 0.14 | 2.09 ± 0.14 | 2.09 ± 0.14 | 2.09 ± 0.14
O [water] + CCCC[n+]1ccc(C)cc1.O=S(=O)([N-]S(=O)(=O)C(F)(F)F)C(F)(F)F | 4.86 ± 0.33 | 4.2 ± 0.29 | 3.65 ± 0.25 | 3.21 ± 0.22 | 2.85 ± 0.19 | 2.54 ± 0.17 | 2.26 ± 0.15 | 2.05 ± 0.14
CO [methanol] + CCCC[n+]1ccc(C)cc1.O=S(=O)([N-]S(=O)(=O)C(F)(F)F)C(F)(F)F | 1.53 ± 0.1 | 1.39 ± 0.09 | 1.27 ± 0.08 | 1.17 ± 0.07 | 1.08 ± 0.07 | 1 ± 0.06 | 0.935 ± 0.059 | 0.876 ± 0.056
CC(C)=O [acetone] + CCCC[n+]1ccc(C)cc1.O=S(=O)([N-]S(=O)(=O)C(F)(F)F)C(F)(F)F | 0.398 ± 0.034 | 0.406 ± 0.034 | 0.415 ± 0.035 | 0.423 ± 0.035 | 0.43 ± 0.035 | 0.438 ± 0.035 | 0.445 ± 0.036 | 0.451 ± 0.036
CCCCC [pentane] + CCCC[n+]1ccc(C)cc1.O=S(=O)([N-]S(=O)(=O)C(F)(F)F)C(F)(F)F | 12.9 ± 0.9 | 12 ± 0.8 | 11.2 ± 0.8 | 10.5 ± 0.7 | 9.89 ± 0.67 | 9.37 ± 0.64 | 8.88 ± 0.61 | 8.47 ± 0.58
C=CCCCCCC [oct-1-ene] + CCCC[n+]1ccc(C)cc1.O=S(=O)([N-]S(=O)(=O)C(F)(F)F)C(F)(F)F | 13.8 ± 0.9 | 13 ± 0.9 | 12.4 ± 0.8 | 11.8 ± 0.8 | 11.3 ± 0.8 | 10.9 ± 0.7 | 10.4 ± 0.7 | 10.1 ± 0.7
Cc1ccccc1C [1,2-dimethylbenzene] + CCCC[n+]1ccc(C)cc1.O=S(=O)([N-]S(=O)(=O)C(F)(F)F)C(F)(F)F |  |  | 1.21 ± 0.08 | 1.24 ± 0.08 | 1.27 ± 0.08 | 1.3 ± 0.08 | 1.32 ± 0.09 | 1.35 ± 0.09
c1ccccc1 [benzene] + CCCC[n+]1ccc(C)cc1.O=S(=O)([N-]S(=O)(=O)C(F)(F)F)C(F)(F)F | 0.683 ± 0.046 | 0.702 ± 0.047 | 0.719 ± 0.048 | 0.735 ± 0.049 | 0.75 ± 0.049 | 0.767 ± 0.05 | 0.781 ± 0.051 | 0.795 ± 0.052
C#CCCCCC [1-heptyne] + CCCC[n+]1ccc(C)cc1.O=S(=O)([N-]S(=O)(=O)C(F)(F)F)C(F)(F)F | 3.2 ± 0.22 | 3.23 ± 0.22 | 3.24 ± 0.22 | 3.26 ± 0.22 | 3.27 ± 0.22 | 3.28 ± 0.22 | 3.29 ± 0.22 | 3.3 ± 0.22
C1CCOC1 [tetrahydrofuran] + CCCC[n+]1ccc(C)cc1.O=S(=O)([N-]S(=O)(=O)C(F)(F)F)C(F)(F)F | 0.617 ± 0.043 | 0.63 ± 0.044 | 0.641 ± 0.044 | 0.653 ± 0.045 | 0.663 ± 0.045 | 0.673 ± 0.046 | 0.683 ± 0.046 | 0.693 ± 0.047
C#CCCCC [1-hexyne] + CCCC[n+]1ccc(C)cc1.O=S(=O)([N-]S(=O)(=O)C(F)(F)F)C(F)(F)F | 2.37 ± 0.16 | 2.39 ± 0.16 | 2.42 ± 0.16 | 2.44 ± 0.17 | 2.46 ± 0.17 | 2.48 ± 0.17 | 2.5 ± 0.17 | 2.52 ± 0.17
Cc1cccc(C)c1 [1,3-dimethylbenzene] + CCCC[n+]1ccc(C)cc1.O=S(=O)([N-]S(=O)(=O)C(F)(F)F)C(F)(F)F |  |  | 1.35 ± 0.09 | 1.38 ± 0.09 | 1.42 ± 0.09 | 1.45 ± 0.1 | 1.48 ± 0.1 | 1.51 ± 0.1
CCCCO [butan-1-ol] + CCCC[n+]1ccc(C)cc1.O=S(=O)([N-]S(=O)(=O)C(F)(F)F)C(F)(F)F |  |  | 2.26 ± 0.15 | 2.05 ± 0.14 | 1.87 ± 0.13 | 1.71 ± 0.11 | 1.57 ± 0.1 | 1.46 ± 0.1
CCCCCCCCCC [decane] + CCCC[n+]1ccc(C)cc1.O=S(=O)([N-]S(=O)(=O)C(F)(F)F)C(F)(F)F | 54.7 ± 3.7 | 49.3 ± 3.4 | 45 ± 3.1 | 41.1 ± 2.8 | 37.6 ± 2.6 | 34.6 ± 2.4 | 31.9 ± 2.2 | 29.7 ± 2

Reference: the NIST ThermoML archive (doi:10.1016/j.jct.2009.06.011)
